Laboratory results from patent US11629143B2, “HipK4 inhibitors and uses thereof” (Vibliome Therapeutics, LLC, priority 2020, dated 2023).

target: T1, DDR2 (Homo sapiens, UniProt Q16832); assay: Kinase panel (mobility shift); assay type: biochemical
T1 sequence (Q16832 22-855): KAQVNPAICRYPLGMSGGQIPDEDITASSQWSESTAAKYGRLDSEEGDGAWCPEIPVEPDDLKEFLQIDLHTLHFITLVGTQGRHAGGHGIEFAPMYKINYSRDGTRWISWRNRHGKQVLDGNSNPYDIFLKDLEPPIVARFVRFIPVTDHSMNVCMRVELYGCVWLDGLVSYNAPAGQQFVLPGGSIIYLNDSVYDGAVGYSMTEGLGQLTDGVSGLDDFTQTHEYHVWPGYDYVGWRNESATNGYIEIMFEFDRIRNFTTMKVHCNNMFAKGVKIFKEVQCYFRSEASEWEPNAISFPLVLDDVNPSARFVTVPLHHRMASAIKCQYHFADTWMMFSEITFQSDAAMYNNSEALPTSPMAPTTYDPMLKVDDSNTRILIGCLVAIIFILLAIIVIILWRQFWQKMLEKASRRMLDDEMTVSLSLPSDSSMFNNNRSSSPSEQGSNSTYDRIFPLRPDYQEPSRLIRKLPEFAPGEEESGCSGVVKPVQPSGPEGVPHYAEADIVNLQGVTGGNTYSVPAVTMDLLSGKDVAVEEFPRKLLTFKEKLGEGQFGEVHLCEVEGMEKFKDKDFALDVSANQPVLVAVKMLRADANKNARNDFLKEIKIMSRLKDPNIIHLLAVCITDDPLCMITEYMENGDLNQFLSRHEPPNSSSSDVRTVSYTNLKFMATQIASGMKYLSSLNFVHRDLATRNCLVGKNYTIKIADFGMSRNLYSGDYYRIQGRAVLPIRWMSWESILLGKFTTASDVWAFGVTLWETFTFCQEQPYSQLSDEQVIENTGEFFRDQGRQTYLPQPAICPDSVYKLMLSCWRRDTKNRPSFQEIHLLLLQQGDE
Summary of the method: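 Compound at 5 um + kinase + fluor-labeled substrate, standardized mix; rxn stopped; electrophoretic separation of product/substrate on chip; activity = product vs substrate peak fluorescence. Bins A ≥95%, B 90-94%, C 80-89%.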

| Structure (SMILES) | inhibition at 5 µM |
| --- | --- |
| CNC(=O)c1cc(Oc2ccc(NC(=O)c3nc(SC)oc3-c3ccc(F)cc3Cl)cc2)ccn1 [Compound 3] | 80 to 89% |
| CNC(=O)c1cc(Oc2ccc(NC(=O)c3nc(SC)oc3-c3ccc(F)c(F)c3)cc2)ccn1 [Compound 4] | 80 to 89% |
| CNC(=O)c1cc(Oc2ccc(NC(=O)c3nc(SC)oc3-c3ccc(Cl)s3)cc2)ccn1 [Compound 5] | 80 to 89% |
| CNC(=O)c1cc(Oc2ccc(NC(=O)c3nc(SC)oc3-c3ccc(F)cc3F)cc2)ccn1 [Compound 6] | 80 to 89% |
| CNC(=O)c1cc(Oc2ccc(NC(=O)c3nc(SC)oc3-c3ccc(OC)cc3)cc2)ccn1 [Compound 7] | 80 to 89% |
| CNC(=O)c1cc(Oc2ccc(NC(=O)c3nc(S(C)(=O)=O)sc3-c3ccc(F)cc3)cc2F)ccn1 [Compound 13] | 80 to 89% |
| CNC(=O)c1cc(Oc2ccc(NC(=O)c3nc(NC)oc3-c3ccc(F)s3)cc2F)ccn1 [Compound 17] | 50 to 79% |
| CNC(=O)c1cc(Oc2c(F)cc(NC(=O)c3nc(NC)sc3-c3ccc(F)cc3)cc2F)ccn1 [Compound 19] | 80 to 89% |
| CNC(=O)c1cc(Oc2ccc(NC(=O)c3nc(NC)sc3-c3ccc(F)cc3F)cc2F)ccn1 [Compound 21] | 50 to 79% |
| CNC(=O)c1cc(Oc2ccc(NC(=O)c3nc(NC)sc3-c3ccc(F)cc3C)cc2F)ccn1 [Compound 23] | 50 to 79% |
| CNC(=O)c1cc(Oc2ccc(NC(=O)c3nc(OC)oc3-c3ccc(F)c(F)c3)cc2F)ccn1 [Compound 24] | 80 to 89% |
| CNC(=O)c1cc(Oc2ccc(NC(=O)c3nc(OC)oc3-c3ccc(F)s3)cc2F)ccn1 [Compound 25] | 50 to 79% |
| CSc1nc(C(=O)Nc2ccc(Oc3ccnc(C(=O)NC4CNC4)c3)c(F)c2)c(-c2ccc(F)s2)o1 [Compound 27] | < 50% |
| CSc1nc(C(=O)Nc2ccc(Oc3ccnc(C(=O)NC4COC4)c3)c(F)c2)c(-c2ccc(F)s2)o1 [Compound 28] | < 50% |
| [2H]C([2H])([2H])NC(=O)c1cc(Oc2ccc(NC(=O)c3nc(SC)oc3-c3ccc(F)s3)cc2F)ccn1 [Compound 35] | 50 to 79% |
| CNC(=O)c1ccc(Oc2ccc(NC(=O)c3nc(Cl)oc3-c3ccc(F)cc3)c(F)c2)cn1 [Compound 36] | < 50% |
| CSc1nc(C(=O)Nc2ccc(Oc3ccnc(C(=O)NC4COC4)c3)c(F)c2)c(-c2ccc(F)c(F)c2)o1 [Compound 37] | < 50% |
| CNC(=O)c1cc(Oc2ccc(NC(=O)c3nc(OCC(F)(F)F)oc3-c3ccc(F)cc3)cc2F)ccn1 [Compound 38] | 50 to 79% |
| COc1nc(C(=O)Nc2ccc(Oc3ccnc(C(=O)NCC(F)(F)F)c3)c(F)c2)c(-c2ccc(F)cc2)o1 [Compound 43] | < 50% |

Further lines, results first:

| inhibition at 5 µM | Structure (SMILES) |
| --- | --- |
| 50 to 79% | CSc1nc(C(=O)Nc2ccc(Oc3ccnc(N)c3Cl)c(F)c2)c(-c2ccc(F)cc2)o1 [Compound 1] |
| 50 to 79% | CSc1nc(C(=O)Nc2ccc(Oc3cc4cnn(C)c4cc3Br)c(F)c2)c(-c2ccc(F)cc2)o1 [Compound 2] |
| ≥ 95% | CSc1nc(C(=O)Nc2ccc(Oc3ccnc(-c4cnn(C)c4)c3)c(F)c2)c(-c2ccc(F)cc2)o1 [Compound 11] |
| 80 to 89% | CNC(=O)c1cc(Oc2ccc(NC(=O)c3nc(SC)oc3-c3ccc(F)cc3F)cc2F)ccn1 [Compound 12] |
| ≥ 95% | CNC(=O)c1cc(Oc2ccc(NC(=O)c3nc(NC)oc3-c3ccc(F)cc3)cc2F)ccn1 [Compound 14] |
| 90 to 94% | CNC(=O)c1cc(Oc2ccc(NC(=O)c3nc(OC)oc3-c3ccc(F)cc3)cc2F)ccn1 [Compound 15] |
| < 50% | CNC(=O)c1cc(Oc2ccc(NC(=O)c3nc(SC)oc3-c3ccc(F)s3)cc2F)ccn1 [Compound 16] |
| 80 to 89% | CNC(=O)c1cc(Oc2ccc(NC(=O)c3nc(C4CC4)oc3-c3ccc(F)cc3)cc2F)ccn1 [Compound 26] |
| 50 to 79% | CSc1nc(C(=O)Nc2ccc(Oc3ccnc(C(=O)NC4CNC4)c3)c(F)c2)c(-c2ccc(F)cc2)o1 [Compound 29] |
| 90 to 94% | CNC(=O)c1cc(Oc2ccc(NC(=O)c3nc(COC)oc3-c3ccc(F)cc3)cc2F)ccn1 [Compound 30] |
| 50 to 79% | CSc1nc(C(=O)Nc2ccc(Oc3ccnc(C(=O)NC4COC4)c3)c(F)c2)c(-c2ccc(F)cc2)o1 [Compound 31] |
| 80 to 89% | CNC(=O)c1cc(Oc2ccc(NC(=O)c3nc(OC4CC4)oc3-c3ccc(F)cc3)cc2F)ccn1 [Compound 32] |
| 80 to 89% | [2H]C([2H])([2H])NC(=O)c1cc(Oc2ccc(NC(=O)c3nc(SC)oc3-c3ccc(F)c(F)c3)cc2F)ccn1 [Compound 33] |
| 50 to 79% | CNC(=O)c1cc(Oc2ccc(NC(=O)c3nc(SC(C)C)oc3-c3ccc(F)cc3)cc2F)ccn1 [Compound 34] |
| 50 to 79% | COc1nc(C(=O)Nc2ccc(Oc3ccnc(C(=O)NC4COC4)c3)c(F)c2)c(-c2ccc(F)cc2)o1 [Compound 39] |
| 50 to 79% | CSc1nc(C(=O)Nc2ccc(Oc3ccnc(C(=O)NCC(F)(F)F)c3)c(F)c2)c(-c2ccc(F)cc2)o1 [Compound 40] |
| 50 to 79% | CSc1nc(C(=O)Nc2ccc(Oc3ccnc(C(=O)NCCN(C)C)c3)c(F)c2)c(-c2ccc(F)cc2)o1 [Compound 41] |
| 50 to 79% | CSc1nc(C(=O)Nc2ccc(Oc3ccnc(C(=O)NC4CCN(C)CC4)c3)c(F)c2)c(-c2ccc(F)cc2)o1 [Compound 42] |
